Assay: Capsule shell integrity with NMP alone or NMP:stabilizing agent 1:1 (wt/wt), banded capsules, observed for leakage and shell cracking
Assay type: physicochemical
Settings: NMP alone filled into size 0 hard gelatin capsule
Procedure: NMP was filled into a size 0 hard gelatin capsule in order to determine the effect of NMP on the integrity of the shell.
To stabilize the capsule shell in presence of solution of NMP, various capsule stabilizing agents were studied for their stability inducing properties. Stabilizing agents were each incorporated into NMP separately. Formulations were prepared by mixing or dissolving each excipient in a vial containing NMP with a 1:1 ratio (wt/wt). The solutions were then encapsulated into size 0 hard gelatin capsules and banded to prevent leakage of the fill contents. Capsules were stored at ambient environment and observations were made at regular time intervals for leakage and capsule shell cracking.

## CN1CCCC1=O [#1, N-methyl-2-pyrrolidone]
  Effect of NMP on the integrity of the capsule shell: Within minutes, the capsule cracked causing the content to leak out

Source: patent publication US7011846B2, “Oral capsule formulation with increased physical stability” (Shire Laboratories, Inc., priority 2001, dated 2006)
